# “And” between values parts separate entries of the source, which are not always exact repeats. Identical values can stand only once. Like-named read-outs stand apart in the source and are kept apart here.
# Columns and labels:
# [1] = target: T1, endogenous GABAB receptor in CGNs (Mus musculus, UniProt Q9WV18); experiment: cell-based; design: species or system primary cerebellar granule neurons (CGNs); BRET G protein sensor (Galpha-Nluc / Venus-Ggamma2), agonist-induced change of BRET
# T1 construct: gene Gabbr1; native receptor, primary cerebellar granule neurons
# T1 sequence (Q9WV18 whole entry): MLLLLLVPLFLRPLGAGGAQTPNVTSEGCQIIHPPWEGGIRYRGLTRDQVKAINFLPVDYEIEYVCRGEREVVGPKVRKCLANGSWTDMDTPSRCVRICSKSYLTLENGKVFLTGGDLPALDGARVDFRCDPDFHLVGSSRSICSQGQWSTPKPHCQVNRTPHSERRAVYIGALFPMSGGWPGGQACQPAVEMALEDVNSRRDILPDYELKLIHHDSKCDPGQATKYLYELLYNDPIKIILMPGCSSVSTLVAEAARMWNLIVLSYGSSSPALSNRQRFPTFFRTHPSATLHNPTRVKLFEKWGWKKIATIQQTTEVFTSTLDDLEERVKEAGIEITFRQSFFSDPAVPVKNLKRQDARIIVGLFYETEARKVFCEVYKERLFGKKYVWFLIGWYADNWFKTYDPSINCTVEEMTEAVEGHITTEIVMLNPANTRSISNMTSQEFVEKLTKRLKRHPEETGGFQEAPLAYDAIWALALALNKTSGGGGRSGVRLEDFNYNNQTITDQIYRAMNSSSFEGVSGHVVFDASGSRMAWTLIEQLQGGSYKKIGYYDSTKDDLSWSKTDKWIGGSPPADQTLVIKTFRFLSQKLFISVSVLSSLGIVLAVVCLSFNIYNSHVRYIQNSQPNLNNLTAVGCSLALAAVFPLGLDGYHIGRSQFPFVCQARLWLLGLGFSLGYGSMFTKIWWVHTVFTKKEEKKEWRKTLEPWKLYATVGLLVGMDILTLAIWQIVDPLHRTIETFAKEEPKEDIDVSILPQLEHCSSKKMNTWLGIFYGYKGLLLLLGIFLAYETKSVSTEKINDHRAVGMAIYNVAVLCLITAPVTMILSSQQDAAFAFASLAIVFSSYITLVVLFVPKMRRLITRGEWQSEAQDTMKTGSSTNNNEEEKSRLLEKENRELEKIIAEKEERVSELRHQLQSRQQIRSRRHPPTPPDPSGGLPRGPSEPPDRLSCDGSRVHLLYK
# T1 sequence (Q80T41 whole entry partner): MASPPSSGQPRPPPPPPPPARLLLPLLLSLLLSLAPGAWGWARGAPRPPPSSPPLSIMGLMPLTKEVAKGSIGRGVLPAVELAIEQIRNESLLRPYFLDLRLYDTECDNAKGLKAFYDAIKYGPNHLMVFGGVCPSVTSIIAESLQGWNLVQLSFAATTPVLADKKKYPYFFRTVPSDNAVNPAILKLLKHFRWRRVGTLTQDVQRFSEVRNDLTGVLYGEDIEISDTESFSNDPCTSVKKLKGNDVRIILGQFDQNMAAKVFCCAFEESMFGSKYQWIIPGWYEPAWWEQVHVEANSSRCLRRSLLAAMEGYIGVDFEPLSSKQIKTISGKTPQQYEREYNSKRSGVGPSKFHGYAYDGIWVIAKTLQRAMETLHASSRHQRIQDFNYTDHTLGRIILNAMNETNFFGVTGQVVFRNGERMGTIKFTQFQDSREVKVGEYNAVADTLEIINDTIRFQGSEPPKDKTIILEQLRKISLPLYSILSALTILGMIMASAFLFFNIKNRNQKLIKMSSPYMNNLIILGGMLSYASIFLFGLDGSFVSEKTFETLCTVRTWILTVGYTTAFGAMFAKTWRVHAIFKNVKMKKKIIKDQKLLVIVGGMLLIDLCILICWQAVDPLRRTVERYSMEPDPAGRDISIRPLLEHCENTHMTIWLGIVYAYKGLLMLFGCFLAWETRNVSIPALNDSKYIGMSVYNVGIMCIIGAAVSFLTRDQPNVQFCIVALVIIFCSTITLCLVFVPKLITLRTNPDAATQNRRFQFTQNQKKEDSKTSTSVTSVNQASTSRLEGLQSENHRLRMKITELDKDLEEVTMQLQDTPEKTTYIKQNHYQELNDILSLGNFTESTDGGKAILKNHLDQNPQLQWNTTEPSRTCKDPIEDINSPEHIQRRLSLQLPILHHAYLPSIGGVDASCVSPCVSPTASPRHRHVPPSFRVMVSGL
# Description: (§1) Dotted line is the correlation of pEC50 determined with HEK293 cells. […] Data are mean ± SEM from at least three biologically independent experiments each performed in triplicate and analysed using one-way ANOVA with a Dunnett’s post-hoc multiple comparison test to determine significance. […] Sequence of the linker (L) before and after Nluc was indicated. […] The raw data and p-values are available in source data provided as a Source Data file.
# [2] = target: T2, GABAB receptor (GB1 subunit) (Rattus norvegicus, UniProt Q9Z0U4); experiment: cell-based; design: species or system HEK293; BRET G protein sensor (Galpha-Nluc / Venus-Ggamma2), agonist-induced change of BRET
# T2 construct: gene Gabbr1; HA-tagged rat GB1 with Flag-tagged rat GB2 expressed in HEK293 cells; with GABAB2 (GB2)
# T2 sequence (Q9Z0U4 20-960): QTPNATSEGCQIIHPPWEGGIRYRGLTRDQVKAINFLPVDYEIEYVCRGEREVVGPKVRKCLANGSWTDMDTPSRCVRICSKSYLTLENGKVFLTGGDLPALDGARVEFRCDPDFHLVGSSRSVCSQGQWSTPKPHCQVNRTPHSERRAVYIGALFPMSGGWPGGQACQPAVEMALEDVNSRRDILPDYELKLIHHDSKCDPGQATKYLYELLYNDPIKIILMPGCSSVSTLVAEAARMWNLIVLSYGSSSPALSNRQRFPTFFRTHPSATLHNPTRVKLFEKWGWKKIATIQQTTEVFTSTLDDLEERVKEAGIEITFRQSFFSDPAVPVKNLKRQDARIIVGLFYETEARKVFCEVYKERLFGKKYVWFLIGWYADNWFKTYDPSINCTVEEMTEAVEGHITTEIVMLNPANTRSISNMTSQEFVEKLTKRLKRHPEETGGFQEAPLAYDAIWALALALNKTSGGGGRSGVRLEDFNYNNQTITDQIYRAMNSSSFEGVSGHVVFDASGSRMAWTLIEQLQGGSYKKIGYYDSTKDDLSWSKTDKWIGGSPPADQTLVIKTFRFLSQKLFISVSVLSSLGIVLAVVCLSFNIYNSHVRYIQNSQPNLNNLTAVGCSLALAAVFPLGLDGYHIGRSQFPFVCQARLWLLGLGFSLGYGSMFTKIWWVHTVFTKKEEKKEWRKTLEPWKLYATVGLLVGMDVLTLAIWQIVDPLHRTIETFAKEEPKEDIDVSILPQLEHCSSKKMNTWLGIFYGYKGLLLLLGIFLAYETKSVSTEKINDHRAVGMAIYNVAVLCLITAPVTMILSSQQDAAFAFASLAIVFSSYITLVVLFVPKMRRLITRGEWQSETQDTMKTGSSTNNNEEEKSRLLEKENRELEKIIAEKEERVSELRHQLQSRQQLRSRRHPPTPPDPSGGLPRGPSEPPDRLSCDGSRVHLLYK
# T2 sequence (O88871 41-940 partner): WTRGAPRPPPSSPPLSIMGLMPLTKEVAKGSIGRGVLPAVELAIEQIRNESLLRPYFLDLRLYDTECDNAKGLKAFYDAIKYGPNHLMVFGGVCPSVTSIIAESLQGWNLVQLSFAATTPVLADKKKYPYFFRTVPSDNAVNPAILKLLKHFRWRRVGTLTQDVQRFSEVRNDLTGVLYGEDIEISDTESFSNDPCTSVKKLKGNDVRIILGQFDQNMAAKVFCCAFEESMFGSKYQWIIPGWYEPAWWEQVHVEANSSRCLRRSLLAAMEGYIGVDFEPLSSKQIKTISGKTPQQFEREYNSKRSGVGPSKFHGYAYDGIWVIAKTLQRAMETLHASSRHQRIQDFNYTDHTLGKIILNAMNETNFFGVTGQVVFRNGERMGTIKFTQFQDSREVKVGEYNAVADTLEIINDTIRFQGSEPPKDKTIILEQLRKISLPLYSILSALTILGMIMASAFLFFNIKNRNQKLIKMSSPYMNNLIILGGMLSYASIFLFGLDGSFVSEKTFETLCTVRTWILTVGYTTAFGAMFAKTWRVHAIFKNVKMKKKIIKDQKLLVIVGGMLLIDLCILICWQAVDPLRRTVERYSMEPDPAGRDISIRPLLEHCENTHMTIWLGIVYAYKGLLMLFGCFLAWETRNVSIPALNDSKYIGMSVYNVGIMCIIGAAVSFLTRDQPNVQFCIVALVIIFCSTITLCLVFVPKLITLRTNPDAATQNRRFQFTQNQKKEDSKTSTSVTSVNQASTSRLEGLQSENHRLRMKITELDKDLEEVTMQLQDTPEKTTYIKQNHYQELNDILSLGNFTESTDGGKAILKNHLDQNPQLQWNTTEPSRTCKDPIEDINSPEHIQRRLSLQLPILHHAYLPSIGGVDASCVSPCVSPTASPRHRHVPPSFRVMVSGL
# Description: as §1
# [3] = target: T3, endogenous cannabinoid CB1 receptor in CGNs (Mus musculus, UniProt P47746); experiment: cell-based; design: species or system mouse primary cerebellar granule neurons (CGNs)
# T3 construct: gene Cnr1; native receptor, primary cerebellar granule neurons
# T3 sequence (P47746 whole entry): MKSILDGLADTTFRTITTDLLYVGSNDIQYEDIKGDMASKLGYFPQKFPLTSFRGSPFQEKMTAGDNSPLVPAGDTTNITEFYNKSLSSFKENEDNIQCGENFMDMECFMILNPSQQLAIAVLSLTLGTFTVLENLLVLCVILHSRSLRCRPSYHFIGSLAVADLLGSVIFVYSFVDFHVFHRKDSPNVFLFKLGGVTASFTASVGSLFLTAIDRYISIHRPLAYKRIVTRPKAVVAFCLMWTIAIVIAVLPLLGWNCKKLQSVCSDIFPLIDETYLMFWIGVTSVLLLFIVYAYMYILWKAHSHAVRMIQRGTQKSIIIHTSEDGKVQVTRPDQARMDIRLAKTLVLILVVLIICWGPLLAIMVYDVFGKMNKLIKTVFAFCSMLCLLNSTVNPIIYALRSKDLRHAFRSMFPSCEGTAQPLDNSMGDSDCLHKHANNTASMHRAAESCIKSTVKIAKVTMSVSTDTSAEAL
# cannabinoid CB1 receptor [4] = target: T4, cannabinoid CB1 receptor (Mus musculus, UniProt P47746); experiment: cell-based; design: species or system HEK293
# T4 construct: gene Cnr1; mouse CB1 cDNA expressed in HEK293 cells
# T4 sequence (P47746 whole entry): as above
# Description: The raw data and p-values are available in source data provided as a Source Data file.
# [5] = target: T3, endogenous cannabinoid CB1 receptor in CGNs; design: species or system mouse primary cerebellar granule neurons (CGNs); settings: agonist
# cannabinoid CB1 receptor [6] = target: T4, cannabinoid CB1 receptor; experiment: cell-based; design: BRET between Galpha-Nluc and Venus-Ggamma2, agonist-induced Gi1 or GoA response of transfected mouse CB1; settings: read-out: Emax ± SEM (n) / Bay 59-3074
# Protocol: Fig. 6 Difference of Gi1 and GoA responses by cannabinoid receptor CB1 agonists. a Detection of CB1 receptor in cell membranes of CGNs, mock-transfected HEK293 cells and HEK293 cells transfected with mouse CB1 cDNA (80 ng/well in 96-well plate), by western blotting. Values are mean ± SEM normalized as fold of CB1 expression in CGNs from three independent experiments. b Percentage of change in BRET ratio between Gα^Nluc and ^VenusGγ2 induced by [compound left out] in HEK293 cells (CB1 cDNA; 80 ng/well per 96-well plate) or CGNs for the indicated Gαi1, Gαi2, Gαi3, GαoA, GαoB or Gαz sensors (amounts of cDNA as in Fig. 2a). […] Data are analysed using unpaired t-test (two-tailed) to determine significance. ****p < 0.0001, *p < 0.05 and not significant (ns). c, d Change of BRET signal between Gα^Nluc and ^VenusGγ2 induced by the indicated CB1 receptor agonists in HEK293 cells and CGNs measured by Gi1 and GoA sensors. […] Inset, correlation of the agonist potencies (pEC50) between HEK293 cells and CGNs determined by the G protein sensors. Dotted lines are the correlation of pEC50 determined with HEK293 cells. […] Values are mean ± SEM normalized as fold of […] expression in CGNs from four independent experiments. c Expression of the Nluc-tagged Gα transfected in CGNs or in HEK293 cells in (a), measured by the luminescent signal at 480 nm. […]
# [7] = target: T1, endogenous GABAB receptor in CGNs; experiment: cell-based; design: species or system primary cerebellar granule neurons (CGNs); settings: with 20 uM baclofen
# Description: We have further validated these G protein sensors by measuring the potency of different orthosteric GABAB receptor ligands (Fig. 3a) in both CGNs and HEK293 cells. […] Similar results were obtained in the hippocampal neurons and cortical neurons (Supplementary Fig. 4b–d and Supplementary Table 1). […] Dotted line is the correlation of pEC50 determined with HEK293 cells. […] Data are mean ± SEM from at least three biologically independent experiments each performed in triplicate and analysed using one-way ANOVA with a Dunnett’s post-hoc multiple comparison test to determine significance. […] The raw data and p-values are available in source data provided as a Source Data file. Fig. 1 Design and validation of the Gi/o protein sensors in neurons. a Scheme of the BRET-based sensors to detect the activity of the endogenous GPCR in neurons. b Scheme of the Gαi/o^Nluc and ^VenusGγ2 constructs co-transfected in the neurons. Sequence of the linker (L) before and after Nluc was indicated. […] The data are representative of BRET ratios from five independent experiments. e Representative fluorescent images of Venus and DAPI in CGNs transfected with GαoA^Nluc and ^VenusGγ2 or in HEK293 cells transfected with GαoA^Nluc, Gβ1 and ^VenusGγ2 from three independent experiments. […] The data are representative of the mean ± SEM of BRET ratios from three independent experiments. […]
# [8] = target: T5, endogenous GABAB receptor in cortical neurons (Mus musculus, UniProt Q9WV18); experiment: cell-based; design: species or system primary cortical neurons; settings: read-out: pEC50 cortical neurons (converted)
# T5 construct: gene Gabbr1; native receptor, primary cortical neurons
# T5 sequence (Q9WV18 whole entry): as the sequence (Q9WV18 whole entry) above
# T5 sequence (Q80T41 whole entry partner): as the sequence (Q80T41 whole entry partner) above
# Description: (§2) Sequence of the linker (L) before and after Nluc was indicated. […] The raw data and p-values are available in source data provided as a Source Data file.
# [9] = target: T6, endogenous GABAB receptor in hippocampal neurons (Mus musculus, UniProt Q9WV18); experiment: cell-based; design: species or system primary hippocampal neurons; BRET G protein sensor (Galpha-Nluc / Venus-Ggamma2), agonist-induced change of BRET; settings: read-out: pEC50 hippocampal neurons (converted)
# T6 construct: gene Gabbr1; native receptor, primary hippocampal neurons
# T6 sequence (Q9WV18 whole entry): as the sequence (Q9WV18 whole entry) above
# T6 sequence (Q80T41 whole entry partner): as the sequence (Q80T41 whole entry partner) above
# Description: as §2
smiles,measurement,setting,value
NCCC[PH](=O)O [APPA],EC50,[1]; Gi1 sensor,741 nM
same,EC50,[1]; GoA sensor,692 nM
same,EC50,"[2]; pEC50 HEK293, Gi1 sensor",21.4 nM
same,EC50,"[2]; pEC50 HEK293, GoA sensor",17 nM
N#Cc1c(Oc2cccc(OS(=O)(=O)CCCC(F)(F)F)c2)cccc1C(F)(F)F [Bay 59-3074],EC50,[3]; pEC50 ± SEM (n) / Bay 59-3074,339 nM and 631 nM
same,EC50,cannabinoid CB1 receptor [4]; pEC50 ± SEM (n) / Bay 59-3074,708 nM and 1170 nM
same,Emax ± SEM (n) / Bay 59-3074,[5],70.7 ± 1.1 (4) and 42.1 ± 3.9 (3)
same,Emax,"cannabinoid CB1 receptor [6]; HEK293, B=Gi1, % of maximum response of reference agonist",50.3%
same,Emax,"cannabinoid CB1 receptor [6]; HEK293, B=GoA, % of maximum response of reference agonist",56.3%
C[C@@H](NC[C@H](O)CP(=O)(O)CCCCCNC(=O)CCc1ccc(O)c(I)c1)c1cccc(C(=O)O)c1 [CGP64213],IC50,[7]; Gi1 sensor,28.2 nM
same,IC50,[7]; GoA sensor,25.7 nM
CCCCCCC(C)(C)c1ccc([C@@H]2C[C@H](O)CC[C@H]2CCCO)c(O)c1 [CP 55940],EC50,"[3]; pEC50 ± SEM (n) / CP 55940, B=Gi1, G protein BRET sensor (Gi1 or GoA), CGNs",6.61 nM
same,EC50,"[3]; pEC50 ± SEM (n) / CP 55940, B=GoA, G protein BRET sensor (Gi1 or GoA), CGNs",55 nM
same,EC50,"cannabinoid CB1 receptor [4]; pEC50 ± SEM (n) / CP 55940, B=Gi1, G protein BRET sensor (Gi1 or GoA), transfected HEK293",126 nM
same,EC50,"cannabinoid CB1 receptor [4]; pEC50 ± SEM (n) / CP 55940, B=GoA, G protein BRET sensor (Gi1 or GoA), transfected HEK293",166 nM
CP(=O)(O)CCCN [SKF 97541],EC50,[1]; Gi1 sensor,2340 nM
same,EC50,[1]; GoA sensor,2040 nM
same,EC50,[8]; Gi1 sensor,302 nM
same,EC50,[8]; GoA sensor,603 nM
same,EC50,[9]; Gi1 sensor,229 nM
same,EC50,[9]; GoA sensor,692 nM
NCC(CC(=O)O)c1ccc(Cl)cc1 (stereo not drawn) [baclofen],EC50,[1]; Gi1 sensor,4790 nM
same,EC50,[1]; GoA sensor,2690 nM
same,EC50,[8]; Gi1 sensor,1120 nM
same,EC50,[8]; GoA sensor,1780 nM
same,EC50,[9]; Gi1 sensor,1020 nM
same,EC50,[9]; GoA sensor,2630 nM

# Reference: paper PMC10914727 (Nature Communications, 2024)
